Experimental data reported in ChEMBL document CHEMBL4190243, “Natural alkaloids as P-gp inhibitors for multidrug resistance reversal in cancer” (Eur J Med Chem, 2017).
Residues, ends and D or L forms follow the SMILES beside them.

Legend:
[1] = Inhibition of P-gp in human MCF7/DX1 cells assessed as […] Rh123 accumulation after 30 mins by FACS analysis; assay type: cell-based; settings: MCF7/DX1, 0.5 h
[2] = Inhibition of P-gp in human MCF7/DX1 cells assessed as […] [3H]paclitaxel accumulation after 40 mins by scintillation counting method; assay type: cell-based
[3] = organism: Homo sapiens; assay: Inhibition of P-gp in human KB/VCR cells assessed as potentiation of vincristine-induced cytotoxicity by measuring fold reduction in vincristine IC50; assay type: cell-based
[4] = organism: Homo sapiens; assay: Inhibition of P-gp in human KBV1 cells assessed as potentiation of vinblastine-induced cytotoxicity by measuring fold reduction in vinblastine IC50 at 50 uM; assay type: cell-based
[5] = organism: Homo sapiens; assay: Inhibition of P-gp in human SW620/AD300 cells assessed as potentiation of taxol-induced cytotoxicity by measuring fold reduction in taxol IC50; assay type: cell-based
[6] = organism: Homo sapiens; assay: Inhibition of P-gp in human HCT116/VM46 cells assessed as potentiation of vinblastine-induced cytotoxicity by measuring fold reduction in vinblastine IC50; assay type: cell-based
[7] = organism: Homo sapiens; assay: Inhibition of P-gp in human Caco2 cells assessed as potentiation of doxorubicin-induced cytotoxicity by measuring fold reduction in doxorubicin IC50; assay type: cell-based
[8] = organism: Homo sapiens; assay: Inhibition of P-gp in human SW620/AD300 cells assessed as potentiation of doxorubicin-induced cytotoxicity by measuring fold reduction in doxorubicin IC50; assay type: cell-based
[9] = target: ATP-dependent translocase ABCB1 (Homo sapiens, UniProt P08183); assay: Inhibition of human MDR1 expressed in mouse L5178 cells assessed as accumulation of Rh123 by measuring fluorescence activity ratio preincubated for 10 mins followed by Rh123 addition measured after 20 mins by FACS analysis; assay type: cell-based
ATP-dependent translocase ABCB1, sequence (P08183 whole entry): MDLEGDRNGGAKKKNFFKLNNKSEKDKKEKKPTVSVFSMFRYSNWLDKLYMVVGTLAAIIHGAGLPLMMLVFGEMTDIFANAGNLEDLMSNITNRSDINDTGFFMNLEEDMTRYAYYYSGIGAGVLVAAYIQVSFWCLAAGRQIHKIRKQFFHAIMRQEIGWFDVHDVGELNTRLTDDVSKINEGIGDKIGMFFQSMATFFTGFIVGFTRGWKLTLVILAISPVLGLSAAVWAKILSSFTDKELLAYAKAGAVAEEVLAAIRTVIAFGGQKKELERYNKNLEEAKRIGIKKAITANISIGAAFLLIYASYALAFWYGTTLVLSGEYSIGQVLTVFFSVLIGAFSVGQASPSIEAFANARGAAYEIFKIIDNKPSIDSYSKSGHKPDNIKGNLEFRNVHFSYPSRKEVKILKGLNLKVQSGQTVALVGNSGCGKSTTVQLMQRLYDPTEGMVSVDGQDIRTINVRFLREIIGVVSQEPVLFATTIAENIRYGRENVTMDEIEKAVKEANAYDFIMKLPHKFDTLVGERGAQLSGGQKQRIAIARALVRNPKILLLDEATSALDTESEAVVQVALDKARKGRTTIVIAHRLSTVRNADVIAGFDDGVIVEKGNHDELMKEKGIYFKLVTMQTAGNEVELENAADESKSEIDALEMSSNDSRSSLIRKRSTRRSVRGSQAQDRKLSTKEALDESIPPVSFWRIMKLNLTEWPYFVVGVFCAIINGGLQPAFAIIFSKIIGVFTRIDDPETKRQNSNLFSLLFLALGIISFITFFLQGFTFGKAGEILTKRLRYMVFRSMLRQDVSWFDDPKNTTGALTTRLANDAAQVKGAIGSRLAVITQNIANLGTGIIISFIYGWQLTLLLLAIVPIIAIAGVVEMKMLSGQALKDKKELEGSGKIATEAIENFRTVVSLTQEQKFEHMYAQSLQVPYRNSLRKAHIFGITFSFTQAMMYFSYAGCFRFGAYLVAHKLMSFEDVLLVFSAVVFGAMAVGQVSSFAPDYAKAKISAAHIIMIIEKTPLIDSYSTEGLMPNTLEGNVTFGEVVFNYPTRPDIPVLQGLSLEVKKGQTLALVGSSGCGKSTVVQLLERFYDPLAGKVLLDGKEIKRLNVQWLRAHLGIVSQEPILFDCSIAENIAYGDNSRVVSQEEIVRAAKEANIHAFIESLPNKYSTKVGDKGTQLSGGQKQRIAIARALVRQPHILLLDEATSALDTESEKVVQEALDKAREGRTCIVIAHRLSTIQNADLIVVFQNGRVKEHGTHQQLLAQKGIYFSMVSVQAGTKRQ

[10] = organism: Homo sapiens; assay: Inhibition of P-gp in human CCRF-CEM/VLB100 cells assessed as potentiation of vincristine-induced cytotoxicity by measuring fold reduction in vincristine IC50
[11] = organism: Homo sapiens; assay: Inhibition of P-gp in human Bel7402/5-FU cells assessed as increase in intracellular accumulation of doxorubicin at 0.4 mg/ml preincubated for 48 hrs followed by doxorubicin addition measured after 2 hrs by FACS analysis relative to control; assay type: cell-based
[12] = organism: Homo sapiens; assay: Inhibition of P-gp in human Bel7402/5-FU cells assessed as increase in intracellular accumulation of Rh123 at 0.8 mg/ml preincubated for 48 hrs followed by Rh123 addition measured after 2 hrs by FACS analysis relative to control; assay type: cell-based
[13] = Cytotoxicity against human KB1 cells; assay type: functional; settings: read-out: ED50 (the source's name)
[14] = organism: Homo sapiens; assay: Inhibition of P-gp in human KBV1 cells assessed as potentiation of doxorubicin-induced cytotoxicity by measuring fold reduction in doxorubicin IC50 at 5 uM; assay type: cell-based
[15] = organism: Homo sapiens; assay: Inhibition of P-gp in human KBV1 cells assessed as potentiation of vinblastine-induced cytotoxicity by measuring fold reduction in vinblastine IC50 at 5 uM; assay type: cell-based
[16] = organism: Homo sapiens; assay: Inhibition of P-gp in human KBV1 cells assessed as potentiation of paclitaxel-induced cytotoxicity by measuring fold reduction in paclitaxel IC50 at 5 uM; assay type: cell-based
[17] = organism: Homo sapiens; assay: Inhibition of P-gp in human K562/VCR cells assessed as potentiation of doxorubicin-induced cytotoxicity by measuring fold reduction in doxorubicin IC50; assay type: cell-based
[18] = organism: Mus musculus; assay: Inhibition of P-gp in mouse P388/DOX cells assessed as potentiation of doxorubicin-induced cytotoxicity by measuring fold reduction in doxorubicin IC50; assay type: cell-based
[19] = organism: Homo sapiens; assay: Inhibition of P-gp in human CCRF-CEM/VLB100 cells assessed as potentiation of vinblastine-induced cytotoxicity by measuring fold reduction in vinblastine IC50
[20] = organism: Homo sapiens; assay: Inhibition of P-gp in human HCT116/VM46 cells assessed as potentiation of doxorubicin-induced cytotoxicity by measuring fold reduction in doxorubicin IC50; assay type: cell-based
[21] = organism: Homo sapiens; assay: Inhibition of P-gp in human MCF7/DOX cells assessed as potentiation of doxorubicin-induced cytotoxicity by measuring fold reduction in doxorubicin IC50 at 5 uM; assay type: cell-based
[22] = organism: Homo sapiens; assay: Inhibition of P-gp in human A549/DDP cells assessed as potentiation of doxorubicin-induced cytotoxicity; assay type: cell-based
[23] = organism: Homo sapiens; assay: Inhibition of P-gp in human MCF7/DOX cells assessed as potentiation of mitoxantrone-induced cytotoxicity by measuring fold reduction in mitoxantrone IC50 at 50 uM after 48 hrs by MTT assay; assay type: cell-based
[24] = system: NCI-H460; assay: Inhibition of P-gp in human NCI-H460 resistant cells assessed as potentiation of doxorubicin-induced cytotoxicity by measuring fold reduction in doxorubicin IC50; assay type: cell-based

## C=C[C@H]1CN2CC[C@H]1C[C@@H]2[C@@H](OC(=O)CCCCCCCC(=O)O[C@@H](c1ccnc2ccc(OC)cc12)[C@H]1C[C@@H]2CCN1C[C@@H]2C=C)c1ccnc2ccc(OC)cc12
[1]
  IC50: 1700 nM
[2]
  IC50: 2000 nM

## CC[C@]12CCCN[C@]13/C(=C\C(=O)OC)c1ccccc1N3C(=O)CC2
[3]
  fold change (FC): 4.7

## CC[C@@H](O)[C@H]1CC[C@H]2O[C@H]3CCN1[C@@H]2[C@@H]1C3O/C(=C2\OC(=O)C(C)=C2OC)[C@H]1C (stereo not given in full)
[4]
  fold change (FC): 2

## C=C/C=C\[C@H](C)[C@H](OC(N)=O)[C@@H](C)[C@H](O)[C@@H](C)C/C(C)=C\[C@H](C)[C@@H](O)[C@@H](C)/C=C\[C@@H](O)C[C@@H]1OC(=O)[C@H](C)[C@@H](O)[C@H]1C
[5]
  fold change (FC): 4

## COc1ccc(/C=C/NC(=O)c2c(-c3cc(OC)c(OC)c(OC)c3)c(-c3cc(OC)c(OC)c(OC)c3)c(C(=O)N/C=C/c3ccc(OC)cc3)n2CCc2ccc(OC)cc2)cc1
[6]
  fold change (FC): 66

## C[n+]1cc2c3c(ccc2c2ccc4cc5c(cc4c21)OCO5)OCO3
[7]
  fold change (FC): 18

## CN1c2ccccc2[C@@]23C[C@H]4C(=O)N5[C@H]6N(C[C@@]7(C)O[C@@H]7C2)c2ccccc2[C@@]6(C)C[C@H]5C(=O)N4[C@H]13
[8]
  fold change (FC): 2

## Cn1c2ccccc2c(=O)c2c(O)cc3c(c21)CC(C(C)(O)CO)O3 (stereo not given) [GRAVACRIDONDIOL]
[9]
  Ratio: 1.72

## C=CC(C)(C)[C@@]12C[C@H]3c4nc5ccccc5c(=O)n4[C@H](C)C(=O)N3[C@@H]1N(C(C)=O)c1ccccc12
[10]
  fold change (FC): 700

## CC(C)[C@H](NC(=O)[C@H](CO)NC(=O)[C@@H](N)Cc1ccc(O)cc1)C(=O)O (H-Tyr-Ser-Val-OH)
[11]
  fold change (FC): 3
[12]
  fold change (FC): 1 to 2

## CC(/C=C/C=C\C=C\C=C(/C)C(=O)N[C@@H](C)CO)=C\[C@@H](C)[C@@H](O)/C(C)=C/[C@@H](C)CCc1ccccc1
[13]
  EC50: 0.03 nM

## CCCC[C@@]12[C@@H]3C[C@H]4[C@H]5[C@H](C)/C(=C6/OC(=O)C(C)=C6OC)O[C@]5(O3)[C@@H]1CCN42
[14]
  fold change (FC): 4 to 5
[15]
  fold change (FC): 5
[16]
  fold change (FC): 7

## O=C1CCC[C@@H]2[C@H]3CCCN4CCC[C@@H](CN12)[C@@H]34
[17]
  fold change (FC): 2.2

## COc1ccc(CCn2cc(-c3ccc(OC)c(OC)c3)c3c4cc(OC)c(OC)cc4oc(=O)c32)cc1OC
[18]
  fold change (FC): 350
[6]
  fold change (FC): 35
[19]
  fold change (FC): 6.2
[20]
  fold change (FC): 350

## O=C(/C=C/C=C/c1ccc2c(c1)OCO2)N1CCCCC1
[21]
  fold change (FC): 32
[22]
  fold change (FC): 14
[23]
  fold change (FC): 7

## H-KILRGVCKKIMRTFLRRISKDILTGKK-OH
[24]
  fold change (FC): 5
